Laboratory results published in PubChem BioAssay AID1963422 (Molecular Pharmacology Branch, DTP, NCI, 2024).

Tested on: 463943-066-T-J2-PDC complex spheroid growth
Assay: Anticancer human tumor 463943-066-T-J2-PDC patient-derived colon adenocarcinoma cell line growth inhibition [Asc]
Conditions: for IC50: curve of first compound; for viability, T/C: stronger effect = lower value
Procedure, shortened: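 Spheroid model: tumor line + HUVEC + hMSC. Single agents and combinations; top conc. at/near clinical Cmax (10 microM if undetermined), half-log dilutions. DMSO stocks at 800-fold test concentration.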

[1] = second compound 0.0316 µM, first compound 0.0316 µM
[2] = second compound 0.0316 µM, first compound 0.1 µM
[3] = second compound 0.0316 µM, first compound 0.316 µM
[4] = second compound 0.0316 µM, first compound 1 µM
[5] = second compound 0.1 µM, first compound 0.0316 µM
[6] = second compound 0.1 µM, first compound 0.1 µM
[7] = second compound 0.1 µM, first compound 0.316 µM
[8] = second compound 0.1 µM, first compound 1 µM
[9] = second compound 0.316 µM, first compound 0.0316 µM
[10] = second compound 0.316 µM, first compound 0.1 µM
[11] = second compound 0.316 µM, first compound 0.316 µM
[12] = second compound 0.316 µM, first compound 1 µM
[13] = second compound 1 µM, first compound 0.0316 µM
[14] = second compound 1 µM, first compound 0.1 µM
[15] = second compound 1 µM, first compound 0.316 µM
[16] = second compound 1 µM, first compound 1 µM
[17] = second compound 3.16 µM, first compound 0.0316 µM
[18] = second compound 3.16 µM, first compound 0.1 µM
[19] = second compound 3.16 µM, first compound 0.316 µM
[20] = second compound 3.16 µM, first compound 1 µM
[21] = second compound 10 µM, first compound 0.0316 µM
[22] = second compound 10 µM, first compound 0.1 µM
[23] = second compound 10 µM, first compound 0.316 µM
[24] = second compound 10 µM, first compound 1 µM
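Further: compound exposure lasted 7 days.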
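Wherever viability, T/C is given: 100% = DMSO vehicle control wells.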

**Q.** Which IC50 (second compound 0.0316 µM) does the source give for `C=CC(=O)N1CCN(c2nc(=O)n(-c3c(C)ccnc3C(C)C)c3nc(-c4c(O)cccc4F)c(F)cc23)C(C)C1` (centres undefined) + Cc1c(S(C)(=O)=O)c(-c2cc(F)cc(N3CCN(c4ccc(NS(=O)(=O)c5ccc(NC(CCN6CCC(C(=O)OCCCP(=O)(O)O)CC6)CSc6ccccc6)c(S(=O)(=O)C(F)(F)F)c5)cc4)CC3)c2)c(-c2ccc(Cl)cc2)n1C(C)C here?
**A.** The IC50 was greater than 10 µM.

**Q.** What about the IC50 (second compound 0.1 µM) of the same compound?
**A.** Its IC50 is greater than 10 µM.

**Q.** What about the IC50 (second compound 0.316 µM) of the same compound?
**A.** Its IC50 is greater than 10 µM.

**Q.** What about the IC50 (second compound 1 µM) of the same compound?
**A.** Its IC50 is greater than 10 µM.

**Q.** And the IC50 (second compound 3.16 µM)?
**A.** Its IC50 is greater than 10 µM.

**Q.** What about the IC50 (second compound 10 µM) of the same compound?
**A.** Its IC50 is 7.14 µM.

**Q.** And the viability, T/C [1]?
**A.** The viability, T/C was 84.9%.

**Q.** And the viability, T/C [2]?
**A.** Its viability, T/C is 92.3%.

**Q.** And the viability, T/C [3]?
**A.** Its viability, T/C is 91%.

**Q.** And the viability, T/C [4]?
**A.** The viability, T/C was 96.1%.

**Q.** What about the viability, T/C (second compound 0.0316 µM, first compound 3.16 µM) of the same compound?
**A.** The viability, T/C was 100%.

**Q.** And the viability, T/C (second compound 0.0316 µM, first compound 10 µM)?
**A.** Its viability, T/C is 78.3%.

**Q.** And the viability, T/C [5]?
**A.** Its viability, T/C is 95%.

**Q.** And the viability, T/C [6]?
**A.** The viability, T/C was 89.7%.

**Q.** And the viability, T/C [7]?
**A.** The viability, T/C was 91.4%.

**Q.** And the viability, T/C [8]?
**A.** Its viability, T/C is 93.6%.

**Q.** And the viability, T/C (second compound 0.1 µM, first compound 3.16 µM)?
**A.** Its viability, T/C is 91.9%.

**Q.** What about the viability, T/C (second compound 0.1 µM, first compound 10 µM) of the same compound?
**A.** The viability, T/C was 84.4%.

**Q.** And the viability, T/C [9]?
**A.** Its viability, T/C is 83.8%.

**Q.** What about the viability, T/C [10] of the same compound?
**A.** Its viability, T/C is 90%.

**Q.** And the viability, T/C [11]?
**A.** Its viability, T/C is 85.3%.

**Q.** And the viability, T/C [12]?
**A.** Its viability, T/C is 87.3%.

**Q.** What about the viability, T/C (second compound 0.316 µM, first compound 3.16 µM) of the same compound?
**A.** Its viability, T/C is 86.8%.

**Q.** And the viability, T/C (second compound 0.316 µM, first compound 10 µM)?
**A.** Its viability, T/C is 83%.

**Q.** What about the viability, T/C [13] of the same compound?
**A.** The viability, T/C was 74%.

**Q.** And the viability, T/C [14]?
**A.** Its viability, T/C is 75.6%.

**Q.** And the viability, T/C [15]?
**A.** The viability, T/C was 75.3%.

**Q.** What about the viability, T/C [16] of the same compound?
**A.** The viability, T/C was 77%.

**Q.** What about the viability, T/C (second compound 1 µM, first compound 3.16 µM) of the same compound?
**A.** Its viability, T/C is 72%.

**Q.** And the viability, T/C (second compound 1 µM, first compound 10 µM)?
**A.** The viability, T/C was 64.4%.

**Q.** And the viability, T/C [17]?
**A.** The viability, T/C was 57.8%.

**Q.** And the viability, T/C [18]?
**A.** The viability, T/C was 59.4%.

**Q.** And the viability, T/C [19]?
**A.** Its viability, T/C is 60.1%.

**Q.** And the viability, T/C [20]?
**A.** Its viability, T/C is 65%.

**Q.** What about the viability, T/C (second compound 3.16 µM, first compound 3.16 µM) of the same compound?
**A.** The viability, T/C was 66%.

**Q.** What about the viability, T/C (second compound 3.16 µM, first compound 10 µM) of the same compound?
**A.** Its viability, T/C is 54.2%.

**Q.** What about the viability, T/C [21] of the same compound?
**A.** Its viability, T/C is 51.5%.

**Q.** And the viability, T/C [22]?
**A.** The viability, T/C was 48.2%.

**Q.** And the viability, T/C [23]?
**A.** The viability, T/C was 52.9%.

**Q.** And the viability, T/C [24]?
**A.** The viability, T/C was 50.6%.

**Q.** And the viability, T/C (second compound 10 µM, first compound 3.16 µM)?
**A.** The viability, T/C was 52.1%.

**Q.** And the viability, T/C (second compound 10 µM, first compound 10 µM)?
**A.** The viability, T/C was 47.9%.

**Q.** What does the source list for `COc1c(OCCCN2CCOCC2)ccc2c3n(c(=NC(=O)c4cnc(N)nc4)nc12)CCN3` + Cc1c(S(C)(=O)=O)c(-c2cc(F)cc(N3CCN(c4ccc(NS(=O)(=O)c5ccc(NC(CCN6CCC(C(=O)OCCCP(=O)(O)O)CC6)CSc6ccccc6)c(S(=O)(=O)C(F)(F)F)c5)cc4)CC3)c2)c(-c2ccc(Cl)cc2)n1C(C)C?
**A.** IC50 (second compound 0.0316 µM): 0.442 µM; IC50 (second compound 0.1 µM): 0.406 µM; IC50 (second compound 0.316 µM): 0.215 µM; IC50 (second compound 1 µM): 0.157 µM; IC50 (second compound 3.16 µM): 0.027 µM; IC50 (second compound 10 µM): < 0.00316 µM; viability, T/C (second compound 0.0316 µM, first compound 0.00316 µM): 95.3%; viability, T/C (second compound 0.0316 µM, first compound 0.01 µM): 91.8%; viability, T/C [1]: 83.6%; viability, T/C [2]: 64.6%; viability, T/C [3]: 57.8%; viability, T/C [4]: 38.4%; viability, T/C (second compound 0.1 µM, first compound 0.00316 µM): 94.4%; viability, T/C (second compound 0.1 µM, first compound 0.01 µM): 86%; viability, T/C [5]: 79.3%; viability, T/C [6]: 65.9%; viability, T/C [7]: 55.7%; viability, T/C [8]: 36.2%; viability, T/C (second compound 0.316 µM, first compound 0.00316 µM): 87.7%; viability, T/C (second compound 0.316 µM, first compound 0.01 µM): 92.6%; viability, T/C [9]: 69%; viability, T/C [10]: 57.5%; viability, T/C [11]: 49.7%; viability, T/C [12]: 34.1%; viability, T/C (second compound 1 µM, first compound 0.00316 µM): 78.9%; viability, T/C (second compound 1 µM, first compound 0.01 µM): 74.5%; viability, T/C [13]: 61.8%; viability, T/C [14]: 51.6%; viability, T/C [15]: 49.5%; viability, T/C [16]: 27.1%; viability, T/C (second compound 3.16 µM, first compound 0.00316 µM): 63.6%; viability, T/C (second compound 3.16 µM, first compound 0.01 µM): 58.8%; viability, T/C [17]: 46%; viability, T/C [18]: 41%; viability, T/C [19]: 33.6%; viability, T/C [20]: 21.5%; viability, T/C (second compound 10 µM, first compound 0.00316 µM): 48.1%; viability, T/C (second compound 10 µM, first compound 0.01 µM): 44.7%; viability, T/C [21]: 41.2%; viability, T/C [22]: 35.6%; viability, T/C [23]: 35.6%; viability, T/C [24]: 21.4%
